One may read the IC50 as the point on the concentration scale where inhibition reaches its midpoint.

Here are results for 16 compounds from article PMC9321043, “Synthesis, Structure–Activity Relationships, and Parasitological Profiling of Brussonol Derivatives as New Plasmodium falciparum Inhibitors” (Pharmaceuticals, 2022).

Test [1] has as its system P. falciparum (3D7 strain). Description: In vitro antiplasmodial activity, P. falciparum blood-stage parasites, SYBR Green I. Conditions: 3D7 strain, 72 h, SYBR Green I, read-out: IC50^Pf. Type of test: cell-based, Plasmodium falciparum. On the procedure:
The P. falciparum strains were cultivated in human blood cells (hRBC) O^+, while P. knowlesi was cultivated in rhesus red blood cells (rRBC) as described. P. falciparum complete RPMI (consisting of RPMI-1640, supplemented with 0.2% NaHCO3, 25 mM HEPES (pH 7.4), 11 mM D-glucose, 10 mg/L hypoxanthine, 25 mg/L gentamicin, and 0.5% (m/v) AlbuMAX II). The parasitemias of these cultures were maintained below 10% with 2.5% hematocrit. P. knowlesi complete RPMI (consisting of RPMI-1640 supplemented with 25 mM HEPES, […] hypoxanthine, 0.26% NaHCO3, 10 mg/L gentamicin, and 1% Albumax II). This culture was maintained with RBCs up to 5% hematocrit. The culture medium was changed daily, and all cultures were maintained under a 90% N2/5% CO2/5% O2 gas mixture at 37 °C. All compounds were purchased from Sigma-Aldrich (Cotia, Brazil).
The antiplasmodial activity of brussonol and derivatives was evaluated against P. falciparum blood parasites 3D7(chloroquine-sensitive). The parasites were synchronized through sterile 5% (m/v) D-sorbitol treatment over 10 min at 37 °C for the enrichment of ring stages. Centrifugation 600× g over 5 min was used to pellet the cultures. The parasitemia was determined by microscope analysis of thin blood smears stained with Giemsa 10% (v/v) after fixation with methanol. The initial parasitemia was calculated for 1000 red blood cells (RBCs), and cultures were diluted to 0.5% parasitemia and 2% hematocrit by the addition of the appropriate volumes of blood and medium. A total of 180 µL aliquots of parasites were distributed into 96-well plates followed by the addition of 20 µL of previously prepared aliquots of ten-fold concentrated compounds, the range of concentrations tested was 10–1.53 µM. Negative and positive control wells, which correspond to non-parasitized erythrocytes and parasite cultures in the absence of compounds, were set in parallel. The DMSO concentration was maintained below 0.05% (v/v) for all compounds except for brussonol, which was 0.5%. The plates were incubated for 72 h at 37 °C in a humidified incubator with a gas mixture of 90% N2, 5% O2, and 5% CO2. Each test was performed in duplicates, and the results were compared with the control cultures. Once completed incubation, the culture medium was removed, and the cells were resuspended in 100 µL PBS (116 mM NaCl, 10 mM NaH2PO4, 3 mM KH2PO4) and lysed with 100 µL lysis buffer (20 mM Tris base, 5 mM EDTA, 0.0008% (v/v) Triton X-100, 0.008% (m/v) saponin, pH 8.0) containing 0.002% (v/v) SYBR Green I. Plates were incubated for 30 min at room temperature, and a SpectraMAX Gemini EM plate reader (Molecular Devices Corp., Sunnyvale, CA) was used to determine the fluorescence corresponding to parasitic density (excitation at 485 nm, emission at 535 nm). The half-maximal inhibitory concentration (IC50^Pf) was determined by non-linear regression analysis of the resulting concentration–response curve using the software GraphPad Prism version 8.0.1 for Windows, GraphPad Software, San Diego, California USA, www.graphpad.com, accessed on 3 March 2022”.

The test system of the next test is P. falciparum 3D7 strain. Description: Chemical rescue assay with isopentenyl pyrophosphate (IPP). Type of test: cell-based, Plasmodium falciparum. The following applies: Plasmodium falciparum, 3D7 strain, 72 h. From the text:
To evaluate whether brussonol interfered with the biosynthesis of […] in malaria parasites, we conducted a chemical rescue assay. The assay identifies compounds that interfere with the metabolism of isoprenoids by “rescuing” their growth inhibition through the supplementation of isopentenyl pyrophosphate (IPP), a key precursor of isoprenoid biosynthesis. […] Thus, the chemical rescue assay compares the IC50 values of the tested compound in the presence and absence of IPP. We used fosmidomycin (FOS) as a positive control for growth inhibition rescuing upon supplementation of IPP (Figure 7b). In this assay, compounds that interfere in the metabolism of isoprenoids show a significant increment in the IC50 value in the presence of IPP (Figure 7b).
The chemical rescue assay was carried out as described by Yeh and DeRisi (2011). This assay consists in verifying the IC50 value of the tested compounds with and without the isopentenyl pyrophosphate (IPP), purchased from Isoprenoids, LC (Florida, USA). Briefly, 3D7 strain ring stages were cultured in 96-well plates, with 0.5% parasitemia and 2% hematocrit. Non-parasitized erythrocytes and parasitized erythrocytes without drugs were used as growth controls, and fosmidomycin (FOS) was used as a positive control for chemical rescue. Serial dilutions of brussonol and FOS were prepared in duplicates. In the same 96-well plate, brussonol and FOS had their antiplasmodial activity evaluated with and without supplementation of 200 µM IPP. Plates were incubated for 72 h and analyzed by the SYBR Green I assay.

The next test relates to HepG2 cells. Nature of the test: Cytotoxic test on immortalized cells, MTT. The test is classed as cell-based, human. Conditions: HepG2, 72 h. On the procedure:
The cytotoxic effects of brussonol and derivatives were evaluated against the human hepatocellular carcinoma cell line (HepG2). The cells were cultivated in an RPMI medium supplemented with 10% (v/v) fetal bovine serum and 25 µg/mL gentamicin. Conditions for the cultivation of these cells were 37 °C and 5% CO2, and every 2 days the supplemented medium was changed.
For experimental procedures, the cells were trypsinized and transferred to a 96-well plate at 30,000 cells per well (180 µL). The plate was incubated at 37 °C and 5% CO2 to allow cell adhesion. Next, 20 µL of serial dilutions of the compounds tested were added to the plate, with a range of concentrations tested from 400–6.25 µM. Cells without any compounds were used as a positive control for growing and the wells containing only medium were used as negative controls. The plate was incubated for 72 h at 37 °C and 5% CO2. After incubation, a microscope was used to determine the highest compound concentration to be used in the experiments (highest concentration without precipitation). A colorimetric assay was used to evaluate cytotoxicity. This assay is based on the metabolic cell activity in the presence of 3-(4,5-dimethylthiazol-2-yl)-2,5-diphenyltetrazolium bromide (MTT). Shortly after incubation, 20 µL of a solution of MTT at 5 mg/mL (solubilized in phosphate buffer) is added to each well. The plate is incubated for 3 to 4 h at 37 °C to allow MTT cleavage in living cells. Then, the supernatant is removed, and 100 µL of dimethylsulfoxide (DMSO) is added to solubilize the purple formazan crystals. The absorbance, which is proportional to the number of viable cells, was determined using a SpectraMAX Plus 384 plate reader (Molecular Devices Corp., Sunnyvale, CA) (λ = 570 nm). All compounds described here were purchased from Sigma-Aldrich (verificar local).
After the IC50 against the parasite and the human cell line is determined, it is possible to calculate the SI. It is calculated as the formula below:SI = IC50^HepG2/IC50^Pf.
For our reference, compounds with SI values higher than 10 are considered well tolerated by the cellular model used, and they are considered for further evaluation.

A further test has as its system hemozoin formation. Description: Hemozoin formation inhibition assay. Type of test: biochemical. Conditions: hemin 25 µM, pH 4.8, 4 h, one experiment in triplicate. As for the experimental part: 2. Hemozoin Formation Inhibition Assay
The hemozoin formation inhibition assay was performed as described previously.12 Briefly, serial 1:3 dilutions, in a 96‐well plate, wit h brussonol were made in a final volume of 20 μL in a concentration 10 times higher than the final concentration of the assay. Secondly, 90 μ L of freshly prepared hemin (at a final concentration of 25 μM) solution in 1M NaOAc/HOAc buffer pH 4.8 were added followed by addition of 90 μ L of 5.4 mg/L Tween 20 solution freshly prepared. The plates were let to stand for 4 hours at 37 °C followed by resuspension with multichannel pippete and read at 415 and 630 nm using a SpectraMAX Plus 384 plate reader (Molecular Devices Corp., Sunnyvale, CA).
Due to the absence of enough compound, this experiment wa s performed only once, but with internal triplicate. Chloroquine (CQ) and pyrimethamine (PYR) were used as positive and negative control of inhibition, respectively.
Inhibition (%) = 100 – 100 x [(Aco ntro l – Asample) / (Acontrol - Amin)] Acontrol is the difference of the absorbance at 415 and 630 nm of the negative control (Hemin +, Tween 20 ‐, Compound ‐); Amin is the difference of the absorbance at 415 and 630 nm of the positive control (Hemin +, Tween 20 +, Compound ‐ ); Asample is the difference of the absorbance at 415 and 630 nm of the sample. The hemozoin formation inhibition assay was performed to evaluate if brussonol act inhibiting hemozoin formation in P. falciparum. CQ, which is a well‐known inhibitor of hemozoin […]
Figure S1. Hemozoin formation inhibition assay. Different concentrations of CQ (black triangles), PYR (red squares) and brussonol (blue circles) were incubated with heme in triplicates. Th e absorbance was recorded at 415/630 nm to determine the hemozoin formation inhibition. […]

Setting [2] is: Plasmodium falciparum, 3D7, 72 h.

Where two headings read alike, the source gives them in different places. A value given as a limit tells only on which side of the number the result lay.

In the case of `Oc1ccc(O)c2c1C[C@@]13CCCC[C@@H]1C[C@@H]2O3` (racemic) [Compound 5], in test [1] (setting [2]), the 50% inhibitory concentration (IC50) is more than 10 µM. Turning to `COc1ccc(OC)c2c1CC13CCCCC1CC2O3` (stereo not shown) [Compound 3], in test [1] (setting [2]), the half-inhibitory concentration (IC50) was more than 10 µM. Still for that read-out and setting: under `O=C1C=CC(=O)C2=C1CC13CCCCC1CC2O3` (stereo not shown) [Compound 6] stands more than 10 µM. The same measure, in the same setting: under `CC(C)c1cc2c(c(O)c1O)C[C@@]13CCCC[C@@H]1C[C@@H]2O3` (racemic) [Compound 13] stands more than 10 µM. Take `O=CN(O)CCCP(=O)(O)O` [fosmidomycin, reference compound]: the IC50 in the test on P. falciparum 3D7 strain (with 200 µM IPP, read-out: IC50 in the presence of IPP) is more than 20 µM; in the test on P. falciparum 3D7 strain (without IPP, read-out: IC50 in the absence of IPP) it was 1.2 ± 0.2 µM. As to `COc1c(C(C)C)cc2c(c1OC)CC13CCCC(C)(C)C1CC2O3` (stereo not shown) [Compound 7], the half-inhibitory concentration (IC50) in test [1] (setting [2]) was 5.2 ± 0.4 µM; with HepG2 cells (Homo sapiens), more than 192 µM. Turning to `COc1ccc2c(c1OC)CC13CCCCC1CC2O3` (stereo not shown) [Compound 2], the IC50 in test [1] (setting [2]) is more than 10 µM. On to `COc1c(C(C)C)cc2c(c1OC)C[C@@]13CCCC[C@@H]1C[C@@H]2O3` (racemic) [Compound 12], for which the half-inhibitory concentration (IC50) in test [1] was 5.6 ± 0.8 µM; in test [1] (setting [2]), approximately 5 µM.

For `COc1c2c(c(-c3ccccc3)c(C(C)C)c1OC)[C@@H]1C[C@H]3C(C)(C)CCC[C@@]3(C2)O1` (racemic) [Compound 11], the half-maximal inhibitory concentration (IC50) in test [1] (setting [2]) was 5.8 ± 0.2 µM; in the test with HepG2 cells (Homo sapiens) it was more than 12 µM.

Turning to `COc1c2c(c(Br)c(C(C)C)c1OC)C1CC3CCCCC3(C2)O1` (stereo not shown) [Compound 14], the IC50 is 5.65 ± 0.05 µM in test [1] (setting [2]) and more than 25 µM in the test with HepG2 cells (Homo sapiens).

Turning to `COc1c2c(c(OC)c(C(C)C)c1OC)[C@@H]1C[C@H]3C(C)(C)CCC[C@@]3(C2)O1` (racemic) [Compound 8], the figures for the 50% inhibitory concentration (IC50) (in test [1] (setting [2]); with HepG2 cells; in the test on HepG2 cells (Homo sapiens)) were approximately 5 µM, 170 ± 38 µM and more than 170 µM, respectively. In the case of `Oc1ccc2c(c1O)CC13CCCCC1CC2O3` (stereo not shown) [Compound 4], in test [1] (setting [2]), the half-inhibitory concentration (IC50) was more than 10 µM. Still for that read-out and setting: under `COc1ccc2c(c1OC)C[C@@]13CCCC(C)(C)[C@@H]1C[C@@H]2O3` (racemic) [Compound 9] stands more than 10 µM. Consider `COc1c2c(c(Br)c(C(C)C)c1OC)[C@@H]1C[C@H]3C(C)(C)CCC[C@@]3(C2)O1` (racemic) [Compound 10], for which the 50% inhibitory concentration (IC50) was 5.6 ± 0.1 µM in test [1] and approximately 5 µM in test [1] (setting [2]). Take `COc1c2c(c(-c3ccccc3)c(C(C)C)c1OC)[C@@H]1C[C@H]3CCCC[C@@]3(C2)O1` (racemic) [Compound 15]: the concentration for half-maximal inhibition (IC50) in test [1] (setting [2]) is 5.89 ± 0.02 µM; with HepG2 cells (Homo sapiens) it was more than 50 µM.

In the test with hemozoin formation, `CCN(CC)CCCC(C)Nc1ccnc2cc(Cl)ccc12` (stereo not shown) [Chloroquine, reference compound] returned an IC50 of 80 µM.
